Tests used:
Assay in all cases: radiometric filter-binding kinase assay, Kinase HotSpot
Conditions in all cases: compound 0.5 µM; ATP 10 µM
ABL1 (human) = ABL1 (human) (UniProt P00519)
WNK3 (human) = WNK3 (human) (UniProt Q9BYP7)
SLK (human) = SLK (human) (UniProt Q9H2G2)
NEK7 (human) = NEK7 (human) (UniProt Q8TDX7)
PRKCB1 (human) = PRKCB1 (human) (UniProt P05771)
IRAK1 (human) = IRAK1 (human) (UniProt P51617)
CSNK1D (human) = CSNK1D (human) (UniProt P48730)
MLTK (human) = MLTK (human) (UniProt Q9NYL2)
CSF1R (human) = CSF1R (human) (UniProt P07333)
MARK2 (human) = MARK2 (human) (UniProt Q7KZI7)
NEK9 (human) = NEK9 (human) (UniProt Q8TD19)
MYLK (human) = MYLK (human) (UniProt Q15746)
AXL (human) = AXL (human) (UniProt P30530)
FGFR1 (human) = FGFR1 (human) (UniProt P11362)
FGR (human) = FGR (human) (UniProt P09769)
STK25 (human) = STK25 (human) (UniProt O00506)
CAMK2B (human) = CAMK2B (human) (UniProt Q13554)
[1] = test system: MKNK1 (human), Q9BUB5 [T385D; 165-205 del]
FLT3 (human) = FLT3 (human) (UniProt P36888)
INSRR (human) = INSRR (human) (UniProt P14616)
PHKG1 (human) = PHKG1 (human) (UniProt Q16816)
CDC42BPA (human) = CDC42BPA (human) (UniProt Q5VT25)
MAPK9 (human) = MAPK9 (human) (UniProt P45984)
CHUK (human) = CHUK (human) (UniProt O15111)
CLK3 (human) = CLK3 (human) (UniProt P49761)
GSG2 (human) = GSG2 (human) (UniProt Q8TF76)
MAPK3 (human) = MAPK3 (human) (UniProt P27361)
SRPK3 (human) = SRPK3 (human) (UniProt Q9UPE1)
PTK6 (human) = PTK6 (human) (UniProt Q13882)
CDK6 CCND1 (human) = CDK6 CCND1 (human) (UniProt Q00534+P24385)
AKT2 (human) = AKT2 (human) (UniProt P31751)
MARK1 (human) = MARK1 (human) (UniProt Q9P0L2)
NEK3 (human) = NEK3 (human) (UniProt P51956)
ACVR1B (human) = ACVR1B (human) (UniProt P36896)
PRKACA (human) = PRKACA (human) (UniProt P17612)
FES (human) = FES (human) (UniProt P07332)
TEK (human) = TEK (human) (UniProt Q02763)
PDGFRA (human) = PDGFRA (human) (UniProt P16234)
DYRK1B (human) = DYRK1B (human) (UniProt Q9Y463)
PLK1 (human) = PLK1 (human) (UniProt P53350)
CAMK4 (human) = CAMK4 (human) (UniProt Q16566)
GRK7 (human) = GRK7 (human) (UniProt Q8WTQ7)

MARK2 (human), sequence (Q7KZI7 whole entry, looked up): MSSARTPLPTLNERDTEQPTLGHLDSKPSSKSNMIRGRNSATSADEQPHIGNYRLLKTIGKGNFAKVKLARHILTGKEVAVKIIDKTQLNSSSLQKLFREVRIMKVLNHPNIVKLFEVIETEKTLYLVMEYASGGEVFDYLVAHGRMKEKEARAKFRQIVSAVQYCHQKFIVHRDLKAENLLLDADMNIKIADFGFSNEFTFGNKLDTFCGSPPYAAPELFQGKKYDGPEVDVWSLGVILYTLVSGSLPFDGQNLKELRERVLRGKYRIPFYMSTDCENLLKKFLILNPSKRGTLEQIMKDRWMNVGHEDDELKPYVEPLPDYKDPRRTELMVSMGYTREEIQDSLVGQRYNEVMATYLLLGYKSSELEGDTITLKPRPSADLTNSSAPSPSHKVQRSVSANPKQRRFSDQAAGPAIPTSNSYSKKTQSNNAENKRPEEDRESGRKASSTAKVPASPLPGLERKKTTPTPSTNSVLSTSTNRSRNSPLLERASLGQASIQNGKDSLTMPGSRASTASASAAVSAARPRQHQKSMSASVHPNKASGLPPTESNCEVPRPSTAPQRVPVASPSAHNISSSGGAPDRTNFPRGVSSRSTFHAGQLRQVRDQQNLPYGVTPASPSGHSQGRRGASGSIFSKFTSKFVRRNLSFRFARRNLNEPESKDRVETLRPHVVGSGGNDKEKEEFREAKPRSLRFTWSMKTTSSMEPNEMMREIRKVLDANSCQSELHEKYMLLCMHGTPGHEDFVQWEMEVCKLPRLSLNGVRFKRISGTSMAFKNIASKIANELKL
TEK (human), sequence (Q02763 whole entry, looked up): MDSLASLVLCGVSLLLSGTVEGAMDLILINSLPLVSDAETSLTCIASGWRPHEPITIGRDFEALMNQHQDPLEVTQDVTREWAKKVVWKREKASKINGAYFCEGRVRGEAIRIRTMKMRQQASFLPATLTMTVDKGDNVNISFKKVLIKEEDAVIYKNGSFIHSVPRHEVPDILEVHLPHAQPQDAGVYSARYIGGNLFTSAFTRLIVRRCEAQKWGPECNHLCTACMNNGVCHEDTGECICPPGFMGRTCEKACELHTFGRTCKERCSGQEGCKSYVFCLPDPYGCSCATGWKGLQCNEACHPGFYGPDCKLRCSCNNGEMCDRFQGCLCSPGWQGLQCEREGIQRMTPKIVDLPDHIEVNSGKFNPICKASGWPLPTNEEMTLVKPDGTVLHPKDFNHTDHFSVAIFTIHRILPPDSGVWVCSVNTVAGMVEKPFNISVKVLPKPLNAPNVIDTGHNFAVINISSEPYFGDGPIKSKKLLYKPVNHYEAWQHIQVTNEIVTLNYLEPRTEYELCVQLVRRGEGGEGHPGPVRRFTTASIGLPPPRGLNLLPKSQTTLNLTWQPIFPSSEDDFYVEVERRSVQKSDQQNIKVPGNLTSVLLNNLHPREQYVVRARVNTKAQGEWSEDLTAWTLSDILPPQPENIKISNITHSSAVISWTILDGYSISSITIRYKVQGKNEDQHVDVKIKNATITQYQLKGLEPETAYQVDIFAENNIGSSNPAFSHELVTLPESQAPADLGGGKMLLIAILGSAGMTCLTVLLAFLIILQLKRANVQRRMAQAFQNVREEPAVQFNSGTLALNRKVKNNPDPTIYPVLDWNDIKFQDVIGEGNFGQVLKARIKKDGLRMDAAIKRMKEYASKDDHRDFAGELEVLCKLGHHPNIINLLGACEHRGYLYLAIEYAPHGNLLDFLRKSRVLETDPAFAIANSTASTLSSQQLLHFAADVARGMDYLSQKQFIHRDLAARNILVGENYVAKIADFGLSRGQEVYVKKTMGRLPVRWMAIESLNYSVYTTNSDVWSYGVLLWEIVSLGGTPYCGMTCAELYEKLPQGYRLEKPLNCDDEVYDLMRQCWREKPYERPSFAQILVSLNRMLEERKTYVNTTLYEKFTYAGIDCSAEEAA
IRAK1 (human), sequence (P51617 whole entry, looked up): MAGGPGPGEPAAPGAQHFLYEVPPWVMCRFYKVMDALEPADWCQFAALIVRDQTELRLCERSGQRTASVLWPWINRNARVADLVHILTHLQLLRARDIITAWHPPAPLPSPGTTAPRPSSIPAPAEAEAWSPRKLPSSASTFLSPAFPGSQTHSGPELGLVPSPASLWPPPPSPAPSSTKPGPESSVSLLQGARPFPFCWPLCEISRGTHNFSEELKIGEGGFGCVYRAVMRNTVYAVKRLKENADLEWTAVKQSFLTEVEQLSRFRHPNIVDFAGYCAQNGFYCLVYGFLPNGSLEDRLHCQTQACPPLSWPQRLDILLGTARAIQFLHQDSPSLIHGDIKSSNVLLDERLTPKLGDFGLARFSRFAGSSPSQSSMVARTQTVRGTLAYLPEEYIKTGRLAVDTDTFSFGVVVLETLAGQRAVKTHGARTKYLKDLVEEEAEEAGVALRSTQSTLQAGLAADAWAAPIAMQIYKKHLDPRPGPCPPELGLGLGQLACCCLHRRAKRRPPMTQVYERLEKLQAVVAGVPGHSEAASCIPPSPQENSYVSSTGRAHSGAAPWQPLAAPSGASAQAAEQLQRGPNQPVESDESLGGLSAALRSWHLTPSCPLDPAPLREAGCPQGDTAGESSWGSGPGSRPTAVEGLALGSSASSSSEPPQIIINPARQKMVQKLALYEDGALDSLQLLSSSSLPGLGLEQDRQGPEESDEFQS
PTK6 (human), sequence (Q13882 whole entry, looked up): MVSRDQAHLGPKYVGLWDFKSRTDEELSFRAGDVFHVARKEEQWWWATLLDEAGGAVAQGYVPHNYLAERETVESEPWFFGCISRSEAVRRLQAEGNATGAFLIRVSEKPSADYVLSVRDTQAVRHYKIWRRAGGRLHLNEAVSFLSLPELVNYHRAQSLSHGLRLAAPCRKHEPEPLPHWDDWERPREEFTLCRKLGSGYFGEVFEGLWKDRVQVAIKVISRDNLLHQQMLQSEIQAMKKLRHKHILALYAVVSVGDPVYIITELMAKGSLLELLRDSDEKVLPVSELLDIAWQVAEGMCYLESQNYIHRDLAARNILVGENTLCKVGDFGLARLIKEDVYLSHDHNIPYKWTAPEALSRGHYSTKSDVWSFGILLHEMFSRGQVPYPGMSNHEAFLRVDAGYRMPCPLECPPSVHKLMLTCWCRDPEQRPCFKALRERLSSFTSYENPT
ACVR1B (human), sequence (P36896 whole entry, looked up): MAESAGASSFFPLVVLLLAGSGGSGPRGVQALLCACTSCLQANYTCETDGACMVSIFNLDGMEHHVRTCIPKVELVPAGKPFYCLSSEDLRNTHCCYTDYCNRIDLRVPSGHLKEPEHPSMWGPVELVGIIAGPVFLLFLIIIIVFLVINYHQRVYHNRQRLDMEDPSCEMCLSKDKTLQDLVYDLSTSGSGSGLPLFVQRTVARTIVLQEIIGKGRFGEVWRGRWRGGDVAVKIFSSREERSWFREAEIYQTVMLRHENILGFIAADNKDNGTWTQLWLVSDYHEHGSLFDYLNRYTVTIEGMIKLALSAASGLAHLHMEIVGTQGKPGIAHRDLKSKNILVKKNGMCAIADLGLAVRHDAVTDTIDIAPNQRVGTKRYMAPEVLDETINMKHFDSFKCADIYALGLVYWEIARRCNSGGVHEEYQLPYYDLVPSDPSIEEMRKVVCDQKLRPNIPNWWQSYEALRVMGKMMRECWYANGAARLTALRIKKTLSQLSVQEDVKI
FGR (human), sequence (P09769 whole entry, looked up): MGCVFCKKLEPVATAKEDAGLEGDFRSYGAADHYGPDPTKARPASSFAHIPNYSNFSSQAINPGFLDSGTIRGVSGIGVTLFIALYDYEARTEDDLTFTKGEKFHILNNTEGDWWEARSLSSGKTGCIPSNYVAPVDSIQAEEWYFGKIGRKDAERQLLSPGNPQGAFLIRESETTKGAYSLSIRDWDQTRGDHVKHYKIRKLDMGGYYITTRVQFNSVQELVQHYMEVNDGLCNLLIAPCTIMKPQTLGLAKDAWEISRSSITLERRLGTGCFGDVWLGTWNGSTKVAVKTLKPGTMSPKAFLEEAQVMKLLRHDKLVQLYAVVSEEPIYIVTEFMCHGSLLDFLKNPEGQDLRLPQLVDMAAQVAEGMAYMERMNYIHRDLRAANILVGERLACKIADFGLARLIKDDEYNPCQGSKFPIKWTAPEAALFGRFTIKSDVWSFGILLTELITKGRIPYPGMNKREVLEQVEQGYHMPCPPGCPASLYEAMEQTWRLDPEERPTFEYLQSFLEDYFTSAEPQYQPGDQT
GSG2 (human), sequence (Q8TF76 whole entry, looked up): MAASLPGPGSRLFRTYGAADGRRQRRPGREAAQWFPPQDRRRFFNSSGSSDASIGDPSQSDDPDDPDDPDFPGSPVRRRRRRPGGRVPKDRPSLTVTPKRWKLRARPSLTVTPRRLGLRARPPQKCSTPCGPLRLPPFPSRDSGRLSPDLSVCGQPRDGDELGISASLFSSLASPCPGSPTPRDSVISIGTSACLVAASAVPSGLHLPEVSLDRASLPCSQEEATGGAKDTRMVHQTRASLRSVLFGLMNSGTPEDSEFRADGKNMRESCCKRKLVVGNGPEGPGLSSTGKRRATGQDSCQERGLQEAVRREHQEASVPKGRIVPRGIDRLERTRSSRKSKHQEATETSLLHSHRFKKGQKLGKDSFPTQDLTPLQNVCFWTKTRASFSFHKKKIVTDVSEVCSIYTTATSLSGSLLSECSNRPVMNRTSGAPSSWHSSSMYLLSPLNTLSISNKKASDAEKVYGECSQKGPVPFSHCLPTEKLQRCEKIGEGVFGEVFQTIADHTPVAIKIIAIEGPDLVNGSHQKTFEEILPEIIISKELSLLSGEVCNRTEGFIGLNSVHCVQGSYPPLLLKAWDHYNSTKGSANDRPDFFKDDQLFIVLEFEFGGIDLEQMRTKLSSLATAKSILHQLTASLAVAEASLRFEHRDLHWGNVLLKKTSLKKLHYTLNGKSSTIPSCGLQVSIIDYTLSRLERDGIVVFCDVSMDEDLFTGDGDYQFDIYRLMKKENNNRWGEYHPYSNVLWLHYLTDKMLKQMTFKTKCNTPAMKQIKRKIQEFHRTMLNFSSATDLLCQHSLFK

Structure (SMILES): Cc1nc(-c2ccccc2)c(-c2ccncc2)o1
- residual activity (ABL1 (human)): 100%
- residual activity (WNK3 (human)): 106%
- residual activity (SLK (human)): 101%
- residual activity (NEK7 (human)): 102%
- residual activity (PRKCB1 (human)): 95.2%
- residual activity (IRAK1 (human)): 124%
- residual activity (CSNK1D (human)): 44%
- residual activity (MLTK (human)): 89%
- residual activity (CSF1R (human)): 104%
- residual activity (MARK2 (human)): 94.3%
- residual activity (NEK9 (human)): 97.2%
- residual activity (MYLK (human)): 101%
- residual activity (AXL (human)): 91.1%
- residual activity (FGFR1 (human)): 90.9%
- residual activity (FGR (human)): 89.7%
- residual activity (STK25 (human)): 104%
- residual activity (CAMK2B (human)): 95.9%
- residual activity [1]: 123%
- residual activity (FLT3 (human)): 95.2%
- residual activity (INSRR (human)): 101%
- residual activity (PHKG1 (human)): 96.1%
- residual activity (CDC42BPA (human)): 91.9%
- residual activity (MAPK9 (human)): 98.2%
- residual activity (CHUK (human)): 105%
- residual activity (CLK3 (human)): 90.6%
- residual activity (GSG2 (human)): 87.6%
- residual activity (MAPK3 (human)): 103%
- residual activity (SRPK3 (human)): 103%
- residual activity (PTK6 (human)): 86%
- residual activity (CDK6 CCND1 (human)): 101%
- residual activity (AKT2 (human)): 96.7%
- residual activity (MARK1 (human)): 92.5%
- residual activity (NEK3 (human)): 93.7%
- residual activity (ACVR1B (human)): 99.3%
- residual activity (PRKACA (human)): 98.9%
- residual activity (FES (human)): 101%
- residual activity (TEK (human)): 101%
- residual activity (PDGFRA (human)): 96.3%
- residual activity (DYRK1B (human)): 98.9%
- residual activity (PLK1 (human)): 104%
- residual activity (CAMK4 (human)): 97.2%
- residual activity (GRK7 (human)): 98.3%

Structure (SMILES): Cn1c2ccccc2c2c3c(c4c5ccccc5n(CCC#N)c4c21)CNC3=O
- residual activity (ABL1 (human)): 84.6%
- residual activity (WNK3 (human)): 93.1%
- residual activity (SLK (human)): 34.1%
- residual activity (NEK7 (human)): 97%
- residual activity (PRKCB1 (human)): 18.7%
- residual activity (IRAK1 (human)): 6.43%
- residual activity (CSNK1D (human)): 97.5%
- residual activity (MLTK (human)): 86.6%
- residual activity (CSF1R (human)): 84.1%
- residual activity (MARK2 (human)): 11.8%
- residual activity (NEK9 (human)): 96.9%
- residual activity (MYLK (human)): 24.6%
- residual activity (AXL (human)): 102%
- residual activity (FGFR1 (human)): 63.3%
- residual activity (FGR (human)): 70.7%
- residual activity (STK25 (human)): 83.9%
- residual activity (CAMK2B (human)): 51.3%
- residual activity [1]: 75.2%
- residual activity (FLT3 (human)): 5.27%
- residual activity (INSRR (human)): 82.5%
- residual activity (PHKG1 (human)): 1.76%
- residual activity (CDC42BPA (human)): 89.9%
- residual activity (MAPK9 (human)): 86%
- residual activity (CHUK (human)): 102%
- residual activity (CLK3 (human)): 23.1%
- residual activity (GSG2 (human)): 27.2%
- residual activity (MAPK3 (human)): 72.6%
- residual activity (SRPK3 (human)): 92.8%
- residual activity (PTK6 (human)): 38.7%
- residual activity (CDK6 CCND1 (human)): 39.4%
- residual activity (AKT2 (human)): 110%
- residual activity (MARK1 (human)): 20.8%
- residual activity (NEK3 (human)): 133%
- residual activity (ACVR1B (human)): 115%
- residual activity (PRKACA (human)): 83.7%
- residual activity (FES (human)): 78.4%
- residual activity (TEK (human)): 104%
- residual activity (PDGFRA (human)): 83.5%
- residual activity (DYRK1B (human)): 25.6%
- residual activity (PLK1 (human)): 103%
- residual activity (CAMK4 (human)): 88.1%
- residual activity (GRK7 (human)): 37.9%

Structure (SMILES): O=C(c1cc2cc(O)ccc2[nH]1)c1cc2cc(O)ccc2[nH]1
- residual activity (ABL1 (human)): 27.8%
- residual activity (WNK3 (human)): 74.6%
- residual activity (SLK (human)): 78.6%
- residual activity (NEK7 (human)): 101%
- residual activity (PRKCB1 (human)): 90.4%
- residual activity (IRAK1 (human)): 98.1%
- residual activity (CSNK1D (human)): 92.5%
- residual activity (MLTK (human)): 34.3%
- residual activity (CSF1R (human)): 97.7%
- residual activity (MARK2 (human)): 59.9%
- residual activity (NEK9 (human)): 93.6%
- residual activity (MYLK (human)): 91.4%
- residual activity (AXL (human)): 90.1%
- residual activity (FGFR1 (human)): 86.5%
- residual activity (FGR (human)): 12.7%
- residual activity (STK25 (human)): 105%
- residual activity (CAMK2B (human)): 93.4%
- residual activity [1]: 83.6%
- residual activity (FLT3 (human)): 3.53%
- residual activity (INSRR (human)): 97.1%
- residual activity (PHKG1 (human)): 72.1%
- residual activity (CDC42BPA (human)): 90.2%
- residual activity (MAPK9 (human)): 116%
- residual activity (CHUK (human)): 103%
- residual activity (CLK3 (human)): 24.8%
- residual activity (GSG2 (human)): 34.8%
- residual activity (MAPK3 (human)): 107%
- residual activity (SRPK3 (human)): 99.4%
- residual activity (PTK6 (human)): 91.9%
- residual activity (CDK6 CCND1 (human)): 81.2%
- residual activity (AKT2 (human)): 104%
- residual activity (MARK1 (human)): 66.3%
- residual activity (NEK3 (human)): 111%
- residual activity (ACVR1B (human)): 98.9%
- residual activity (PRKACA (human)): 107%
- residual activity (FES (human)): 95.3%
- residual activity (TEK (human)): 104%
- residual activity (PDGFRA (human)): 65.3%
- residual activity (DYRK1B (human)): 92%
- residual activity (PLK1 (human)): 101%
- residual activity (CAMK4 (human)): 96.5%
- residual activity (GRK7 (human)): 99.8%

Reference: the kinase profiling compilation of Christmann-Franck et al. (2016)
